How the values were obtained:
[1] = tested on: peripheral blood mononuclear cells (PBMC); assay: In Vitro PBMC Studies: Percent modification - G-CSF expression; type: cell-based, human; conditions: average of PBMC donors D1-D3
Experimental: 480 ng of G-CSF mRNA modified with 5-methylcytosine (5mC) and pseudouridine (pseudoU) or unmodified G-CSF mRNA was transfected with 0.4 uL of Lipofectamine 2000 into peripheral blood mononuclear cells (PBMC) from three normal blood donors (D1, D2, and D3). […] The supernatant was harvested and run by ELISA 22 hours after transfection to determine the protein expression. The expression of IFN-alpha and TNF-alpha may be a secondary effect from the transfection of the G-CSF mRNA.

[2] = tested on: peripheral blood mononuclear cells (PBMC), IFN-alpha; assay: In Vitro PBMC Studies: Percent modification - IFN-alpha expression; type: cell-based, human
Experimental: (§1) The supernatant was harvested and run by ELISA 22 hours after transfection to determine the protein expression.

[3] = tested on: peripheral blood mononuclear cells (PBMC), TNF-alpha; assay: In Vitro PBMC Studies: Percent modification - TNF-alpha expression; type: cell-based, human
Experimental: as §1

[4] = tested on: Salmonella tester strains (TA97a, TA98, TA100 and TA1535) and Escherichia coli strain (WP2 uvrA pKM101); assay: Microames Reverse Mutation Screen
Experimental: The microames screen is a version of the full Ames preincubation assay. It detects both frameshift and base-pair substitution mutations using four Salmonella tester strains (TA97a, TA98, TA100 and TA1535) and one Escherichia coli strain (WP2 uvrA pKM101). Strains TA97a and TA98 detect frameshift mutations, and TA100, TA1535 and WP2 uvrA pKM101 detect base-pair substitution mutations. This scaled-down Ames test uses minimal compound, is conducted with and without metabolic activation (S9 fraction), and uses multiwell plates. This teste is a microbial assay to detect the mutagenic potential of test compounds.
Positive control compounds were used at 4 different concentrations to ensure the assay system was sensitive to known mutagenic compounds. DMSO was used as the vehicle control.

[5] = tested on: peripheral blood mononuclear cells (PBMC); assay: In Vitro Screening in PBMC - G-CSF protein expression; type: cell-based, human; conditions: 500 ng mRNA
Description: (§2) The supernatant was harvested and stored frozen until analyzed by ELISA to determine the G-CSF protein expression, and the induction of the cytokines interferon-alpha (IFN-α) and tumor necrosis factor alpha (TNF-α).

[6] = tested on: peripheral blood mononuclear cells (PBMC), interferon-alpha (IFN-α); type: cell-based, human
Description: as §2

[7] = tested on: peripheral blood mononuclear cells (PBMC), tumor necrosis factor alpha (TNF-α); assay: In Vitro Screening in PBMC - tumor necrosis factor alpha (TNF-α) induction; type: cell-based, human; conditions: 500 ng fully modified G-CSF mRNA
Description: as §2

[8] = target: wild-type T7 polymerase (Escherichia phage T7, UniProt P00573); assay: In Vitro Transcription with Wild-Type T7 Polymerase (transcription and capping yield); conditions: OD260; for In vitro transcription Yield: wild-type T7 polymerase; for Capping reaction Yield: enzymatic capping
wild-type T7 polymerase, sequence (P00573 whole entry): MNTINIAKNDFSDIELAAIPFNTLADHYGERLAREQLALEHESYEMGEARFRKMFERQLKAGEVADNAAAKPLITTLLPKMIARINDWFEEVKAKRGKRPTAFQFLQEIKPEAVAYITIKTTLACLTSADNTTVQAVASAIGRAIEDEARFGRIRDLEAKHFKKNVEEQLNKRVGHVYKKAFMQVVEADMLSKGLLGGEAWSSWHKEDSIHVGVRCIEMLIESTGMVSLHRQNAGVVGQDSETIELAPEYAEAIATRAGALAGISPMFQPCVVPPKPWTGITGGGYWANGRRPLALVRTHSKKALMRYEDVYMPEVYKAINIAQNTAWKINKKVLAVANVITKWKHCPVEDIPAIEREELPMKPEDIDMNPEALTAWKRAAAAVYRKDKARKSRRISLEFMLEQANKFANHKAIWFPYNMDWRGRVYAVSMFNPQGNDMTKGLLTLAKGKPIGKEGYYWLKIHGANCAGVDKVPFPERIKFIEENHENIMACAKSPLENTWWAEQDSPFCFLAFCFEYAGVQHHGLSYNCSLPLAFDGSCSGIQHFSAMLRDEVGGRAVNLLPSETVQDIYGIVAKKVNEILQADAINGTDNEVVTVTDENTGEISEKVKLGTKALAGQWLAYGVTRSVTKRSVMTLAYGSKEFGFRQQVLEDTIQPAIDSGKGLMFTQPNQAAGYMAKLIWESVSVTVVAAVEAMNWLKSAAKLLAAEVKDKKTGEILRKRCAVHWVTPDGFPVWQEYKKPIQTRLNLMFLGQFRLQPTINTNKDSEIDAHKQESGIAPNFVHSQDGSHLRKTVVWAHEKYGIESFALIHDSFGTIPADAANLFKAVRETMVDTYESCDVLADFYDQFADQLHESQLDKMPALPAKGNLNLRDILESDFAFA
Experimental: The luciferase and G-CSF modified mRNA were also subjected to an enzymatic capping reaction and each modified mRNA capping reaction was evaluated for yield by spectrophometic measurement (OD260) and correct size assessed using bioanalyzer.

[9] = tested on: rabbit reticulysates; assay: G-CSF expression in rabbit reticulysates (ELISA); type: biochemical; conditions: 250 ng modified G-CSF mRNA in rabbit reticulysates
Experimental: (§3) To assess the activity of all our different chemical modifications in the context of a second open reading frame, we replicated experiments previously conducted using luciferase mRNA, with human G-CSF mRNA. […] The mutant T7 polymerase was obtained commercially (Durascribe® T7 Transcription kit (Cat. No. DS010925) (Epicentre®, Madison, Wis.).
(§4) The modified RNA in Tables 45 and 46 were transfected in vitro in HeLa cells or added to rabbit reticulysates (250 ng of modified mRNA) as indicated. […] In Table 45, “NT” means not tested.

[10] = tested on: Balb-C mice; assay: In Vivo Screening of Luciferase Modified mRNA (bioluminescence, total flux); conditions: fully modified luciferase mRNA in 1×PBS, subcutaneous, 42 to 103 ug, imaged 8 hours after dosing, total flux of entire mouse
Experimental: A control of PBS was also tested. The dosages of the modified luciferase mRNA is also outlined in Table 31. 8 hours after dosing the mice were imaged to determine luciferase expression. Twenty minutes prior to imaging, mice were injected intraperitoneally with a D-luciferin solution at 150 mg/kg. Animals were then anesthetized and images were acquired with an IVIS Lumina II imaging system (Perkin Elmer). Bioluminescence was measured as total flux (photons/second) of the entire mouse.

[11] = tested on: HeLa cells; assay: G-CSF expression in HeLa cells (ELISA); type: cell-based, human; conditions: fully modified G-CSF mRNA transfected in HeLa cells, ELISA
Experimental: as §3, §4

[12] = Stability of Modified RNA - storage, gel electrophoresis; type: physicochemical
Experimental: Stability experiments were conducted to obtain a better understanding of storage conditions to retain the integrity of modified RNA. […] After the mRNA had been stored for 0 hours, 2 hours, 6 hours, 24 hours, 48 hours, 5 days and 14 days, the mRNA was analyzed by gel electrophoresis using a Bio-Rad EXPERION™ system. The modified, unmodified and lipoplexed G-CSF mRNA was also stored in RNASTABLE® (Biomatrica, Inc. San Diego, Calif.) at 40° C. or water at −80° C. or 40° C. for 35 days before being analyzed by gel electrophoresis.

[13] = any strain, with or without metabolic activation
[14] = PBMC Donor 1, 0.4 uL Lipofectamine 2000

In the case of `CN(C)c1nc2c(ncn2[C@@H]2O[C@H](CO)[C@@H](O)[C@H]2O)c(=O)[nH]1` [Compound 50, N,N-dimethyl guanosine], the “Average G-CSF” value [1] is reported as 189 pg/mL, the “Average IFN-a” value [2] is reported as 376 pg/mL and the “Average TNF-a” value [3] is reported as 28 pg/mL.

With `Cn1cc([C@@H]2O[C@H](CO)[C@@H](O)[C@H]2O)c(=O)[nH]c1=O` [N1-methylpseudouridine] the “Cytotoxicity (reduction in the background lawn and/or number of revertants)” value [4, 13] was “not observed”, the “increase in the number of revertant colonies as compared with the vehicle control” value [4, 13] was “no increase” and the “mutagenic (microAmes screen)” value ([4]; up to 250 ug/well, strains TA97a, TA98, TA100, TA1535 and WP2 uvrA pKM101 with or without metabolic activation) was “not mutagenic”. The “G-CSF Protein Expression” value [5, 14] was 21,495 pg/ml, the “G-CSF Protein Expression” value ([5]; PBMC Donor 2) was 16,550 pg/ml and the “G-CSF Protein Expression” value ([5]; PBMC Donor 3) was 12,441 pg/ml. The “cytokine induction (in words)” value [6] was “no cytokine induction”, the “IFN-α Expression (pg/ml) Donor 1” value ([6]; 500 ng fully modified G-CSF mRNA, Lipofectamine 2000, PBMC Donor 1, supernatant ELISA) was 26 pg/mL and the “IFN-α Expression (pg/ml) Donor 2” value ([6]; 500 ng fully modified G-CSF mRNA, Lipofectamine 2000, PBMC Donor 2, supernatant ELISA) was 75 pg/mL. The “IFN-α Expression (pg/ml) Donor 3” value ([6]; 500 ng fully modified G-CSF mRNA, Lipofectamine 2000, PBMC Donor 3, supernatant ELISA) was 138 pg/mL, the “TNF-α Expression (pg/ml) Donor 1” value ([7]; Lipofectamine 2000, PBMC Donor 1, supernatant ELISA) was 101 pg/mL and the “TNF-α Expression (pg/ml) Donor 2” value ([7]; Lipofectamine 2000, PBMC Donor 2, supernatant ELISA) was 106 pg/mL. The “TNF-α Expression (pg/ml) Donor 3” value ([7]; Lipofectamine 2000, PBMC Donor 3, supernatant ELISA) was 134 pg/mL, the “In vitro transcription Yield” value ([8]; G-CSF mRNA) was 3.24 mg and the “Capping reaction Yield” value ([8]; G-CSF modified mRNA (wild-type T7)) was 2.58 mg. For the same molecule, the “In vitro transcription Yield” value ([8]; Luciferase mRNA) was 1.43 mg, the “Capping reaction Yield” value ([8]; Luciferase modified mRNA (wild-type T7)) was 1.27 mg and the “G-CSF protein (pg/ml) Rabbit reticulysates cells” value [9] was 230,000 pg/ml.

For `CC(=O)Nc1ccn([C@@H]2O[C@H](CO)[C@@H](O)[C@H]2O)c(=O)n1` [N4-acetylcytidine], the “G-CSF Protein Expression” value [5, 14] was 50 pg/mL, the “G-CSF Protein Expression” value ([5]; PBMC Donor 2) was 136 pg/mL and the “G-CSF Protein Expression” value ([5]; PBMC Donor 3) was 36 pg/mL. For the same molecule, the “Luciferase expression (photon/second)” value [10] was 1.11E07 photon/second, the “G-CSF protein (pg/ml) HeLa cells” value [11] was 39,545 pg/ml and the “G-CSF protein (pg/ml) Rabbit reticulysates cells” value [9] was 8,000 pg/ml.

With `O=c1[nH]c(=O)n([C@@H]2O[C@H](CO)[C@@H](O)[C@H]2O)cc1Br` [5-bromouridine] the “G-CSF Protein Expression” value [5, 14] was 314 pg/mL, the “G-CSF Protein Expression” value ([5]; PBMC Donor 2) was 482 pg/mL and the “G-CSF Protein Expression” value ([5]; PBMC Donor 3) was 291 pg/mL. For the same molecule, the “Luciferase expression (photon/second)” value [10] was 3.75E+07 photon/second.

B1: Modified G-CSF mRNA: G-CSF mRNA fully modified with 5-methylcytosine and pseudouridine, with or without lipoplex (0.75% RNAIMAX) (nucleic acid, listed as Homo Sapiens)
chain: GGGAAAUAAGAGAGAAAAGAAGAGUAAGAAGAAAUAUAAGAGCCACCAUGGCCGGUCCCGCGACCCAAAGCCCCAUGAAACUUAUGGCCCUGCAGUUGCUGCUUUGGCACUCGGCCCUCUGGACAGUCCAAGAAGCGACUCCUCUCGGACCUGCCUCAUCGUUGCCGCAGUCAUUCCUUUUGAAGUGUCUGGAGCAGGUGCGAAAGAUUCAGGGCGAUGGAGCCGCACUCCAAGAGAAGCUCUGCGCGACAUACAAACUUUGCCAUCCCGAGGAGCUCGUACUGCUCGGGCACAGCUUGGGGAUUCCCUGGGCUCCUCUCUCGUCCUGUCCGUCGCAGGCUUUGCAGUUGGCAGGGUGCCUUUCCCAGCUCCACUCCGGUUUGUUCUUGUAUCAGGGACUGCUGCAAGCCCUUGAGGGAAUCUCGCCAGAAUUGGGCCCGACGCUGGACACGUUGCAGCUCGACGUGGCGGAUUUCGCAACAACCAUCUGGCAGCAGAUGGAGGAACUGGGGAUGGCACCCGCGCUGCAGCCCACGCAGGGGGCAAUGCCGGCCUUUGCGUCCGCGUUUCAGCGCAGGGCGGGUGGAGUCCUCGUAGCGAGCCACCUUCAAUCAUUUUUGGAAGUCUCGUACCGGGUGCUGAGACAUCUUGCGCAGCCGUGAAGCGCUGCCUUCUGCGGGGCUUGCCUUCUGGCCAUGCCCUUCUUCUCUCCCUUGCACCUGUACCUCUUGGUCUUUGAAUAAAGCCUGAGUAGGAAG
modifications: 5mC/pseudoU; Cap1; polyA tail
With B1 the freeze/thaw cycles tolerated [12] was 12 freeze/thaw cycles, the “stable out to” value ([12]; stored at 25° C.) was 120 h and the “stable out to” value ([12]; stored at 37° C.) was 24 h. The “stable out to” value ([12]; stored at 50° C.) was 6 h.

Reference: patent publication US20130123481A1, “MODIFIED NUCLEOSIDES, NUCLEOTIDES, AND NUCLEIC ACIDS, AND USES THEREOF” (MODERNA THERAPEUTICS, priority 2011, published 2013)
